Numbering of substitutions follows the chain as printed. Read-outs that look alike come from different tables or passages of the source.
Columns and labels:
[1] = molecular target: T1, hEg5-367H (Homo sapiens, UniProt P52732); experiment: ATP hydrolysis by recombinant human Eg5 motor domain (NADH-enzyme coupled assay); type: biochemical
T1 construct: motor domain (amino acid residues 1–367) of human Eg5; His6 (C); made in house
T1 sequence (P52732 1-367): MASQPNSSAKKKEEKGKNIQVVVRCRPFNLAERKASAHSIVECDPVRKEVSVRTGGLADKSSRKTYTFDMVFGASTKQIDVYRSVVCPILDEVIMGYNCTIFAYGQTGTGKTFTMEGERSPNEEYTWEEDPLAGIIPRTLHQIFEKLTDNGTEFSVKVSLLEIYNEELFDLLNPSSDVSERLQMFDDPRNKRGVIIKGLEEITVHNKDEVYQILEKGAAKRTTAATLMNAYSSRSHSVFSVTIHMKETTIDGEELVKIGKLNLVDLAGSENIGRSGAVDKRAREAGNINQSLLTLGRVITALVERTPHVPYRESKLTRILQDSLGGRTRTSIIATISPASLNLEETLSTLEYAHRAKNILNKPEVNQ
Experimental: Figure 2 Structure-activity relationship of monastrol derivatives. (A) Scheme depicting the Biginelli condensation, a one-pot reaction for preparing monastrol derivatives. […] Each data point is the average of three independent experiments. […] Each cell-based assay was performed in duplicate.
We used a modified PCR mutagenesis protocol to introduce mutations into hEg5-367H, a plasmid encoding the C-terminally His6-tagged motor domain (amino acid residues 1–367) of human Eg5. The wild-type and mutant proteins were expressed and purified using Ni-NTA affinity chromatography and concentrated to between 3 and 10 mg/ml protein as described.
(§1) ATP hydrolysis by recombinantly expressed kinesin motor domains was measured using an NADH-enzyme coupled assay. ATP hydrolysis was measured in KC25 buffer supplemented with 5 μM taxol, 1 mM ATP-KOH (pH 7.0), the appropriate concentration of motor domain, and the appropriate concentrations of taxol-polymerized microtubules.

[2] = molecular target: T2, hEg5-367H (R119L) (Homo sapiens, UniProt P52732, R119L); experiment: ATP hydrolysis by Eg5 motor domain mutant R119L; type: biochemical; conditions: Figure 4B; legend: basal ATP hydrolysis; read-out: IC50(μM) of monastrol, (R119L)
T2 sequence (P52732 1-367 R119L): T1 sequence (P52732 1-367) with R119L
From the text: Figure 4 Mutagenesis of the monastrol binding site in human Eg5. (A) Design of mutations in the human Eg5 motor domain. Amino acid side chains that are not conserved between Eg5 and conventional kinesin were targeted, either introducing chimeric or rationally designed mutations (asterix for targeted point mutants) to test the contribution of residues to the drug-sensitivity of Eg5. (B) Steady-state enzymatic parameters for engineered human Eg5 motor domain mutants. Steady-state ATP hydrolysis by Eg5 was measured using an NADH-enzyme coupled assay varying the concentration of ATP, microtubules, or monastrol to obtain the microtubule concentration for half-maximal stimulation (K0.5MT), the maximal rate of microtubule-stimulated ATP hydrolysis (kcat), and the concentration of monastrol that inhibits basal ATP hydrolysis by 50 % (IC50), as described.
We used a modified PCR mutagenesis protocol to introduce mutations into hEg5-367H, a plasmid encoding the C-terminally His6-tagged motor domain (amino acid residues 1–367) of human Eg5. […]
as §1

[3] = tested on: KC167 cells; experiment: Spindle phenotype of Drosophila cells treated with monastrol; type: cell-based, D. melanogaster; conditions: data not shown
From the text: Monastrol binds a hydrophobic pocket between loop 5 and α3 that is poorly conserved among kinesins, resulting in specificity for vertebrate Eg5 homologs. […] Monastrol is known to inhibit human and Xenopus Eg5 [7, 9], but not BimC [27]. To test its effect on D. rerio Eg5 and Klp-61F, we treated AB9 and KC167 cells with monastrol. […] To obtain unambiguous evidence, we cloned the motor domain of Klp-61F and subjected the recombinant protein to ATPase assays in the presence or absence of microtubules.
Conditions for growing the following cell lines are as described: D. rerio AB9 (37), D. melanogaster KC167 [38], and BS-C-1 green monkey kidney cells. For immunofluorescence microscopy, cells were grown on 12 mm circular coverslips to 30 % confluence, treated medium supplemented with drug and 0.2% DMSO, or a DMSO alone, for 6 hours, fixed with formaldehyde, and stained for DNA and microtubules, as described. D. melanogaster KC167 cells were cultured in Schneider's Drosophila Medium (GIBCO) whereas D. rerio AB9 cells and BS-C-1 green monkey kidney cells were cultured at 37°C in Dulbecco's Minimal medium in the presence of 10 % heat inactivated fetal calf serum.

In the case of `CCOC(=O)C1=C(C)NC(=S)NC1c1cccc(O)c1` (stereo not shown) [Monastrol], the IC50 ([1]; 500 nM hEg5-367H, KC25 buffer, 1 mM ATP-KOH (pH 7.0), 1 μM taxol-stabilized microtubules, read-out: IC50 (μM), inhibition of ATP hydrolysis by Eg5 motor domain) is reported as 5.2 ± 0.4 µM, the IC50 ([1]; wild-type motor domain, Figure 4B, legend: basal ATP hydrolysis, read-out: IC50(μM) of monastrol, hEg5-367H) is reported as 10 ± 2 µM and the IC50 [2] is reported as 17 ± 2 µM. For the same compound, the “Effect on spindles in Drosophila cells” value [3] was “normal, bipolar spindles”.

Source: paper PMC1448180, “Small-molecule and mutational analysis of allosteric Eg5 inhibition by monastrol” (BMC Chemical Biology, 2006)
